Measured values as given in patent US20250275959A1, “COMPOUNDS AND METHODS OF THEIR USE” (LEXICON PHARMACEUTICALS, INC., priority 2024, published 2025).

Assay: Murine diet-induced obesity (DIO) model, Compounds B-D study
Format: in vivo, C57BL/6J mice
Settings: DIO mice; for mean adipose weights versus control group: abdominal adipose tissue
Experimental: The effects of four representative compounds of the invention were tested in a mouse model of diet-induced obesity (DIO): • Compound A is (R)—N-(tert-butylsulfonyl)-4-(1-(5-(pyridin-3-yloxy)pyridin-2-yl)ethoxy)-3-(trifluoromethyl)benzamide; • Compound B is (R)-4-(1-(5-(cyclopropylmethoxy)pyridin-2-yl)propoxy)-N-((4-(2-(dimethylamino)ethoxy)phenyl)sulfonyl)-2,3-difluorobenzamide; • Compound C is (R)—N-((4-(2-(dimethylamino)ethoxy)piperidin-1l-yl)sulfonyl)-2,3-difluoro-4-(1-(5-(pyridin-2-yloxy)pyridin-2-yl)propoxy)benzamide; and • Compound D is (R)-2,3-difluoro-N-((4-methylpiperazin-1-yl)sulfonyl)-4-(1-(5-(pyridin-2-yloxy)pyridin-2-yl)propoxy)benzamide.
The mice used in these experiments were C57BL/6J mice fed a high-fat diet (D12492 from Research Diets) ad libitum during the study period. The vehicle and test article formulations were 10% w/v Solutol in water.
In this study, three compounds tested at 30 mg/kg were compared against vehicle control over a month. After their acclimation period, DIO mice were equally divided into groups of ten mice each based on body weight. The animals were pre-dosed for three days prior to formal dosing (once per day treatment every group), as well as weight and food intake were recorded from Day −2 onwards. From Day 1 to Day 27, the animals in the dosing group were administered orally by gavage at 5:00 p.m. every day. All animals were fasted overnight after dosing on Day 28 and Day 29. Then the blood (retro-orbital bleed) of mice from each group was collected at 7:00 a.m. to separate out the serum for measuring total cholesterol levels (TC), triglyceride (TG), aminotransferase alanine (ALT), aspartate aminotransferase (AST) and total bilirubin (TBil) levels on Day 29. On day 30, all animals were performed OGTT test (0 min, 15 min, 30 min, 60 min, 90 min and 120 min) and measured insulin levels (0 min, 15 min, 30 min and 60 min). On day 32, all animals were injected insulin after 4 hours fasting, then performed ITT test (0 min, 15 min, 30 min, 60 min and 90 min). On day 33, Epididymal white adipose tissue (eWAT), jejunum, liver, heart and brain were collected; eWAT, liver and heart weights were recorded. All of the adipose tissue in the abdominal cavity was collected and weighted, and the fatty tissue coefficient (body fat ratio) was calculated and then stored at −80° C. for inspection.
• 1. Body weight and Food Consumption: Pre-dose every day from Day −2 onwards. • 2. Day −2,—1 and Day 0: Handle mice and gavage with vehicle. • 3. Day 1˜27: Dose˜5:00 PM. • 4. Day 28: Dose˜5:00 PM. Fast overnight. • 5. Day 29: Determine total cholesterol levels and triglyceride, ALT, AST, total bilirubin levels˜7:00 AM. Resume feeding. • 6. Day 29: Dose˜5:00 PM. Fast overnight. • 7. Day 30: (No drug administration) Oral glucose tolerance test (OGTT) with glucose levels measured at Pre-dose, 15 min, 30 min, 60 min, 90 min and 120 min after the glucose challenge. And insulin levels will be test at time 0 min, 15 min, 30 min and 60 min after the glucose challenge. • 8. Day 30˜31: Dose˜5:00 PM. • 9. Day 32: (No drug administration) ITT test (two days after the OGTT test): Fast 4 h. After insulin injection, the levels of glucose will be measured at Pre-dose, 15 min, 30 min, 60 min and 90 min. • 10. After the ITT test. Collect serum with a terminal bleed from all 50 mice. • 11. Collect epidydimal WAT (eWAT) pad, jejunum, liver, heart, and brain. • 12. Record eWAT, liver, and heart weights. • 13. Before freezing tissue/serum: • (i) Assess Drug Concentration; serum, liver, eWAT, heart, jujenum, and brain. (25 serum samples; 5 mice/group will progress to biomarker study and remaining 25 serum samples saved for future analysis). • 14. Prepare liver, heart and eWAT tissue for histopathology analysis. • (ii) Liver for all 50 mice; HE staining to assess liver steatosis. • (iii) Heart or all 50 mice; HE and DAPI staining to assess cardiac morphology. […]

| SMILES | mean body weight versus control group (30 mg/kg oral daily) | overall food consumption versus control group (30 mg/kg oral daily) | Body Weight (g)/Day (30 mg/kg oral daily, Day 1) [g] | Body Weight (g)/Day (30 mg/kg oral daily, Day 2) [g] | Body Weight (g)/Day (30 mg/kg oral daily, Day 3) [g] | Body Weight (g)/Day (30 mg/kg oral daily, Day 4) [g] | Body Weight (g)/Day (30 mg/kg oral daily, Day 5) [g] | Body Weight (g)/Day (30 mg/kg oral daily, Day 6) [g] | Body Weight (g)/Day (30 mg/kg oral daily, Day 7) [g] | Body Weight (g)/Day (30 mg/kg oral daily, Day 8) [g] | Body Weight (g)/Day (30 mg/kg oral daily, Day 9) [g] | Body Weight (g)/Day (30 mg/kg oral daily, Day 10) [g] | Body Weight (g)/Day (30 mg/kg oral daily, Day 11) [g] | Body Weight (g)/Day (30 mg/kg oral daily, Day 12) [g] | Body Weight (g)/Day (30 mg/kg oral daily, Day 13) [g] | Body Weight (g)/Day (30 mg/kg oral daily, Day 14) [g] | Body Weight (g)/Day (30 mg/kg oral daily, Day 15) [g] | Body Weight (g)/Day (30 mg/kg oral daily, Day 16) [g] | Body Weight (g)/Day (30 mg/kg oral daily, Day 17) [g] | Body Weight (g)/Day (30 mg/kg oral daily, Day 18) [g] | further results |
| --- | --- | --- | --- | --- | --- | --- | --- | --- | --- | --- | --- | --- | --- | --- | --- | --- | --- | --- | --- | --- | --- |
| CC[C@@H](Oc1ccc(C(=O)NS(=O)(=O)c2ccc(OCCN(C)C)cc2)c(F)c1F)c1ccc(OCC2CC2)cn1 [Compound B, (R)-4-(1-(5-(cyclopropylmethoxy)pyridin-2-yl)propoxy)-N-((4-(2-(dimethylamino)ethoxy)phenyl)sulfonyl)-2,3-difluorobenzamide] | significantly lower than that of the control group from Day 15 to the end | significantly lower than that of the control group | 42.2 ± 4.7 | 42.2 ± 4.5 | 42.3 ± 4.7 | 43 ± 3.9 | 43.1 ± 3.9 | 43 ± 4.1 | 42.8 ± 4 | 43.1 ± 4.3 | 42.9 ± 4.5 | 43.3 ± 4.5 | 43.1 ± 4.6 | 42.7 ± 4.6 | 42.5 ± 4.6 | 42.3 ± 4.6 | 42.6 ± 4.5 | 42.5 ± 4.5 | 41.7 ± 4.6 | 42.1 ± 4.8 | Body Weight (g)/Day (30 mg/kg oral daily, Day 19): 42.2 ± 4.7 g; Body Weight (g)/Day (30 mg/kg oral daily, Day 20): 42.2 ± 4.5 g; Body Weight (g)/Day (30 mg/kg oral daily, Day 21): 42.3 ± 4.7 g; Body Weight (g)/Day (30 mg/kg oral daily, Day 22): 42.4 ± 4.7 g; Body Weight (g)/Day (30 mg/kg oral daily, Day 23): 42.6 ± 4.7 g; Body Weight (g)/Day (30 mg/kg oral daily, Day 24): 42.6 ± 4.4 g; Body Weight (g)/Day (30 mg/kg oral daily, Day 25): 42.5 ± 4.8 g; Body Weight (g)/Day (30 mg/kg oral daily, Day 26): 42.8 ± 4.7 g; Body Weight (g)/Day (30 mg/kg oral daily, Day 27): 43 ± 4.8 g; Body Weight (g)/Day (30 mg/kg oral daily, Day 28): 42.9 ± 4.7 g; Body Weight (g)/Day (30 mg/kg oral daily, Day 29): 42.3 ± 4.4 g; Body Weight (g)/Day (30 mg/kg oral daily, Day 30): 40.4 ± 4.2 g; Body Weight (g)/Day (30 mg/kg oral daily, Day 31): 40.9 ± 4.2 g; Body Weight (g)/Day (30 mg/kg oral daily, Day 32): 40.3 ± 4.1 g; Body Weight (g)/Day (30 mg/kg, Day 0 (pre-dose)): 42.1 ± 4.8 g; eWAT coefficient versus control group (30 mg/kg, Day 33): slightly lower than that of the control group; Body Weight (g)/Day (30 mg/kg, Day −1 (pre-dose)): 41.7 ± 4.6 g; Body Weight (g)/Day (30 mg/kg, Day −2 (pre-dose)): 42.5 ± 4.5 g; mean adipose weights versus control group (30 mg/kg): significantly lower than that of the control group; ITT blood glucose versus control group (Day 32, at 30 minutes and 60 minutes after insulin): significantly lower than that of the control group |
| CC[C@@H](Oc1ccc(C(=O)NS(=O)(=O)N2CCC(OCCN(C)C)CC2)c(F)c1F)c1ccc(Oc2ccccn2)cn1 [Compound C, (R)-N-((4-(2-(dimethylamino)ethoxy)piperidin-1-yl)sulfonyl)-2,3-difluoro-4-(1-(5-(pyridin-2-yloxy)pyridin-2-yl)propoxy)benzamide] | significantly lower than that of the control group from Day 23 | significantly lower than that of the control group | 45 ± 4.9 | 44.8 ± 5 | 44.3 ± 4.9 | 44.3 ± 4.9 | 44.1 ± 4.9 | 44 ± 4.7 | 43.5 ± 4.9 | 44 ± 5 | 44.2 ± 4.8 | 44.2 ± 4.7 | 44.4 ± 4.8 | 43.9 ± 4.9 | 43.7 ± 4.7 | 43.7 ± 4.7 | 43.9 ± 4.8 | 44.1 ± 4.8 | 43.5 ± 4.7 | 43.6 ± 4.6 | Body Weight (g)/Day (30 mg/kg oral daily, Day 19): 43.9 ± 4.9 g; Body Weight (g)/Day (30 mg/kg oral daily, Day 20): 44.1 ± 4.8 g; Body Weight (g)/Day (30 mg/kg oral daily, Day 21): 44.2 ± 5 g; Body Weight (g)/Day (30 mg/kg oral daily, Day 22): 44.1 ± 5.1 g; Body Weight (g)/Day (30 mg/kg oral daily, Day 23): 44.1 ± 5.3 g; Body Weight (g)/Day (30 mg/kg oral daily, Day 24): 43.8 ± 5.3 g; Body Weight (g)/Day (30 mg/kg oral daily, Day 25): 43.9 ± 5.2 g; Body Weight (g)/Day (30 mg/kg oral daily, Day 26): 43.9 ± 5.2 g; Body Weight (g)/Day (30 mg/kg oral daily, Day 27): 44.1 ± 5.2 g; Body Weight (g)/Day (30 mg/kg oral daily, Day 28): 43.9 ± 5.3 g; Body Weight (g)/Day (30 mg/kg oral daily, Day 29): 43.2 ± 5.2 g; Body Weight (g)/Day (30 mg/kg oral daily, Day 30): 41.4 ± 5 g; Body Weight (g)/Day (30 mg/kg oral daily, Day 31): 41.6 ± 5.2 g; Body Weight (g)/Day (30 mg/kg oral daily, Day 32): 41 ± 5 g; Body Weight (g)/Day (30 mg/kg, Day 0 (pre-dose)): 44.9 ± 5.1 g; Body Weight (g)/Day (30 mg/kg, Day −1 (pre-dose)): 44.9 ± 5.3 g; Body Weight (g)/Day (30 mg/kg, Day −2 (pre-dose)): 44.8 ± 5.2 g; mean adipose weights versus control group (30 mg/kg): significantly lower than that of the control group; ITT blood glucose versus control group (Day 32, at 15, 30, 60 and 90 minutes after insulin): significantly lower than that of the control group |
